We go through 1 molecule from patent US11260047B2, “Formulations of AG10” (Eidos Therapeutics, Inc., priority 2018, dated 2022).

What all share (type): in vivo
Series [1] can be described thus: Pharmacokinetics of AG10 after oral administration in beagle dogs, Study No. 2. The note with it: both sexes, dog, plasma, 20 mg/kg; for Cmax / AUC(0-t): 20 mg/kg oral, sex MF; for AUC(0-t): read-out: AUC0-24; for Tmax: read-out: time to maximal concentration (T max). How it is done:
The pharmacokinetics of AG10 were also determined following oral administration in non-naïve male and female beagle dogs (Study No. 2). The study design included three treatment groups (n=2/sex/group). Groups 1 and 2 received 5 mg/kg and 20 mg/kg AG10 in 0.5% methylcellulose (MC) formulations respectively. Group 3 animals received 20 mg/kg AG10 in gelatin capsule form. Blood samples were collected at pre-dose and approximately 2, 4, 6, 8, 12, and 24 hours post-dose. Plasma samples were assayed for AG10 by LC-MS/MS. Plasma exposures (AUC0-24) of AG10 in dogs administered 20 mg/kg AG10 as a suspension in 0.5% methylcellulose were similar to those obtained in Study No. 1 (Table 1). Plasma exposures of AG10 were also similar in dogs which were administered the same dose of AG10 either as a suspension in 0.5% methylcellulose or as a gelatin capsule without any excipients.

Series [2] in a line: Pharmacokinetics of AG10 tablets and capsule given orally to male beagle dogs, Study No. 3. The note with it: for Tmax / Cmax / AUC(0-t): male, beagle, dog, plasma, po; for Tmax: dogs, read-out: time to maximal concentration (T max); for Cmax / AUC(0-t): male dogs; for AUC(0-t): read-out: AUC0-24. How it is done:
AG10 was administered orally to 4 male beagle dogs each as a 50 mg tablet, 200 mg tablet, and a 200 mg capsule (No. 3). Blood samples were collected at pre-dose and approximately 0.25, 0.5, 1, 2, 4, 8, 24, 48, 72 and 96 hours post-dose. Plasma samples were assayed for AG10 by LC-MS/MS.

The nature of series [3]: Pharmacokinetics of AG10 in dogs, oral gavage, Study No. 1. The following applies: both sexes, dog, plasma. The method, then: Pharmacokinetics of AG10 were determined when administered once daily to dogs via oral gavage at 20, 60, and 200 mg/kg for 3 days (Study No. 1). Each group consisted of two animals/sex/group. Blood samples were collected from each animal on Day 1 at pre-dose, 0.25, 0.5, 1, 2, 4, 8, 12 and 24 hours post-dose, Day 3 at pre-dose, 0.25, 0.5, 1, 2, 4, 8, 12, 24, 48 and 72 hr post-dose. Plasma samples were assayed for AG10 by LC-MS/MS. In general, no sex differences in AG10 mean Cmax and AUC0-24 values were observed; therefore, results for the 20 mg/kg dose group are presented as combined sex values in Table 1 below.

The mark [4] stands for this setting: gelatin capsule without excipients.

One may read the Cmax as the maximum level reached in the sampled fluid or tissue. On to `Cc1n[nH]c(C)c1CCCOc1cc(C(=O)O)ccc1F` [AG10, 3-(3-(3,5-dimethyl-1H-pyrazol-4-yl)propoxy)-4-fluorobenzoic acid], for which the Cmax was 8.1 µg/mL in series [1] (0.5% MC formulation); 10.3 µg/mL in series [1] (setting [4]); 4.66 µg/mL in series [2] (50 mg, tablet 50 mg oral); 9.33 µg/mL in series [2] (200 mg, capsule 200 mg oral); 13 µg/mL in series [2] (200 mg, tablet 200 mg oral); 16.1 µg/mL in series [3] (0.5% MC formulation, 20 mg/kg oral gavage, sex MF combined). Also, the AUC(0-t) was 71.2 µg·h/mL in series [1] (0.5% MC formulation); 89.3 µg·h/mL in series [1] (setting [4]); 41.5 µg·h/mL in series [2] (50 mg, tablet 50 mg oral); 65.7 µg·h/mL in series [2] (200 mg, capsule 200 mg oral); 88 µg·h/mL in series [2] (200 mg, tablet 200 mg oral); 69.1 µg·h/mL in series [3] (0.5% MC formulation, 20 mg/kg oral gavage, sex MF combined, read-out: AUC0-24). Moreover, the Tmax was 2 h in series [1] (capsule formulated without excipients); 2.5 ± 1 h in series [1] (methylcellulose formulation); 0.5 h in series [2] (50 mg, 50 mg tablets); 1.38 ± 0.75 h in series [2] (200 mg, 200 mg capsules with excipient); 1 h in series [2] (200 mg, 200 mg tablets); 0.44 ± 0.38 h in series [3] (po, 20 mg/kg, methylcellulose formulation, read-out: time to maximal concentration (T max)). Moreover, the “Cmax, 200 mg tablets compared with 200 mg capsules” value in series [2] (unpaired t-test, P value 0.0788) is listed as “not significantly different”. For the same molecule, the “AUC0-inf, 200 mg tablets compared with 200 mg capsules” value in series [2] (unpaired t-test, P value 0.0995) was “not significantly different”.
